Results taken from PubChem BioAssay AID1259411 (Chemical Carcinogenesis Research Information System (CCRIS), 2018).
Calls of active or inactive are those of the source. How the calls were made is not given here.

Test system: rodent carcinogenicity bioassays, tumor incidence
Assay: CCRIS carcinogenicity studies
Settings: Dose: 0, Dose: 0
How it was run: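 Archive of carcinogenicity, mutagenicity, tumor promotion and tumor inhibition results drawn from journals, NCI reports and other sources, expert-reviewed; covers 1985-2011 and is no longer updated.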

ClC(Cl)=C(Cl)Cl was tested. Which carcinogen call (Species: MOUSE, Strain/Sex: B6C3F1/FEMALE, Route: GAVAGE, 386, 772 MG/KG, TWA FOR 78 WKS, 386, 772 MG/KG, TWA FOR 78 WKS, Tumor Site: Type of Lesion: LIVER: HEPATOCELLULAR CARCINOMA) did it give?
Its carcinogen call is “active; positive”.

What about the carcinogen call (Species: MOUSE, Strain/Sex: B6C3F1/FEMALE, Route: INHALATION, 100, 200 PPM 6 HR/D, 5 D/WK FOR 103 WK, 100, 200 PPM 6 HR/D, 5 D/WK FOR 103 WK, Tumor Site: Type of Lesion: LIVER: HEPATOCELLULAR CARCINOMA, HEPATOCELLULAR ADENOMA OR CARCINOMA) of the same molecule?
The carcinogen call was “active; positive”.

What about the carcinogen call (Species: MOUSE, Strain/Sex: B6C3F1/MALE, Route: GAVAGE, 536, 1072 MG/KG, TWA FOR 78 WKS, 536, 1072 MG/KG, TWA FOR 78 WKS, Tumor Site: Type of Lesion: LIVER: HEPATOCELLULAR CARCINOMA) of the same molecule?
Its carcinogen call is “active; positive”.

And the carcinogen call (Species: MOUSE, Strain/Sex: B6C3F1/MALE, Route: INHALATION, 100, 200 PPM 6 HR/D, 5 D/WK FOR 103 WK, 100, 200 PPM 6 HR/D, 5 D/WK FOR 103 WK, Tumor Site: Type of Lesion: LIVER: HEPATOCELLULAR ADENOMA, HEPATOCELLULAR CARCINOMA)?
Its carcinogen call is “active; positive”.

What about the carcinogen call (Species: RAT, Strain/Sex: F344/FEMALE, Route: INHALATION, 200, 400 PPM 6 HR/D, 5 D/WK FOR 103 WK, 200, 400 PPM 6 HR/D, 5 D/WK FOR 103 WK, Tumor Site: Type of Lesion: HEMATOPOIETIC SYSTEM: MONONUCLEAR CELL LEUKEMIA) of the same molecule?
The carcinogen call was “active; positive”.

And the carcinogen call (Species: RAT, Strain/Sex: F344/MALE, Route: INHALATION, 200, 400 PPM 6 HR/D, 5 D/WK FOR 103 WK, 200, 400 PPM 6 HR/D, 5 D/WK FOR 103 WK, Tumor Site: Type of Lesion: HEMATOPOIETIC SYSTEM: MONONUCLEAR CELL LEUKEMIA)?
The carcinogen call was “active; positive”.

O=[N+]([O-])c1c2ccccc2c2ccc3cccc4ccc1c2c43 was tested. Which carcinogen call (Species: MOUSE, Strain/Sex: ICR/FEMALE, Route: INTRAPERITONEAL, 14 UG TOTAL DOSE (2 UG/5 µL, 4 UG/10 µL, 8 UG/20 µL DMSO ON DAYS 1,8 AND 15), 70 UG TOTAL DOSE (10 UG/5 µL, 20 UG/10, 14 UG TOTAL DOSE (2 UG/5 µL, 4 UG/10 µL, 8 UG/20 µL DMSO ON DAYS 1,8 AND 15), 70 UG TOTAL DOSE (10 UG/5 µL, 20 UG/10) did it give?
The carcinogen call was “inactive; negative”.

What about the carcinogen call (Species: MOUSE, Strain/Sex: ICR/MALE, Route: INTRAPERITONEAL, 14 UG TOTAL DOSE (2 UG/5 µL, 4 UG/10 µL, 8 UG/20 µL DMSO ON DAYS 1,8 AND 15), 70 UG TOTAL DOSE (10 UG/5 µL, 20 UG/10, 14 UG TOTAL DOSE (2 UG/5 µL, 4 UG/10 µL, 8 UG/20 µL DMSO ON DAYS 1,8 AND 15), 70 UG TOTAL DOSE (10 UG/5 µL, 20 UG/10) of the same molecule?
The carcinogen call was “inactive; negative”.

What does the source list for O=[N+]([O-])c1cc([As](=O)(O)O)ccc1O?
carcinogen call (Species: MOUSE, Strain/Sex: B6C3F1/FEMALE, Route: ORAL, 100, 200 PPM IN FEED FOR 103 WK (STUDY DURATION: 105 WK), 100, 200 PPM IN FEED FOR 103 WK (STUDY DURATION: 105 WK)): inactive; negative; carcinogen call (Species: MOUSE, Strain/Sex: B6C3F1/MALE, Route: ORAL, 100, 200 PPM IN FEED FOR 103 WK (STUDY DURATION: 105 WK), 100, 200 PPM IN FEED FOR 103 WK (STUDY DURATION: 105 WK)): inactive; negative; carcinogen call (Species: RAT, Strain/Sex: F344/FEMALE, Route: ORAL, 50, 100 PPM IN FEED FOR 103 WK (STUDY DURATION: 104 WK), 50, 100 PPM IN FEED FOR 103 WK (STUDY DURATION: 104 WK)): inactive; negative; carcinogen call (Species: RAT, Strain/Sex: F344/MALE, Route: ORAL, 50, 100 PPM IN FEED FOR 103 WK (STUDY DURATION: 104 WK), 50, 100 PPM IN FEED FOR 103 WK (STUDY DURATION: 104 WK), Tumor Site: Type of Lesion: EXOCRINE PANCREAS: ADENOMA): equivocal
